Numbers after ± are expanded uncertainties.
Details: for vapor or sublimation pressure: Transpiration method; for Triple point temperature: Adiabatic calorimetry

CC(C)(C)c1ccc(-c2ccccc2)cc1 [4-(1,1-dimethylethyl)-1,1'-biphenyl]
vapor or sublimation pressure (301 K, Crystal): 8.2e-05 ± 5e-06 kPa
vapor or sublimation pressure (303.9 K, Crystal): 0.000119 ± 7e-06 kPa
vapor or sublimation pressure (305.9 K, Crystal): 0.000156 ± 9e-06 kPa
vapor or sublimation pressure (307.9 K, Crystal): 0.000203 ± 1.1e-05 kPa
vapor or sublimation pressure (310.9 K, Crystal): 0.000285 ± 1.6e-05 kPa
vapor or sublimation pressure (312.9 K, Crystal): 0.000369 ± 2.1e-05 kPa
vapor or sublimation pressure (313.8 K, Crystal): 0.000417 ± 2.3e-05 kPa
vapor or sublimation pressure (315.8 K, Crystal): 0.000507 ± 2.8e-05 kPa
vapor or sublimation pressure (318.8 K, Crystal): 0.000708 ± 3.9e-05 kPa
vapor or sublimation pressure (319.8 K, Crystal): 0.000814 ± 4.5e-05 kPa
vapor or sublimation pressure (320.2 K, Crystal): 0.000843 ± 4.7e-05 kPa
vapor or sublimation pressure (321.7 K, Crystal): 0.001012 ± 5.6e-05 kPa
vapor or sublimation pressure (322.7 K, Crystal): 0.001146 ± 6.3e-05 kPa
vapor or sublimation pressure (323.2 K, Crystal): 0.001207 ± 6.7e-05 kPa
vapor or sublimation pressure (325.2 K, Crystal): 0.0015 ± 8.1e-05 kPa
vapor or sublimation pressure (326.2 K, Crystal): 0.00168 ± 9.1e-05 kPa
vapor or sublimation pressure (327.4 K, Liquid): 0.00187 ± 0.0001 kPa
vapor or sublimation pressure (331.5 K, Liquid): 0.00263 ± 0.00014 kPa
vapor or sublimation pressure (334.4 K, Liquid): 0.00326 ± 0.00017 kPa
vapor or sublimation pressure (336.6 K, Liquid): 0.00389 ± 0.0002 kPa
vapor or sublimation pressure (338 K, Liquid): 0.00428 ± 0.00022 kPa
vapor or sublimation pressure (338.8 K, Liquid): 0.00465 ± 0.00025 kPa
vapor or sublimation pressure (340.5 K, Liquid): 0.00532 ± 0.00028 kPa
vapor or sublimation pressure (341.6 K, Liquid): 0.00563 ± 0.0003 kPa
vapor or sublimation pressure (343.7 K, Liquid): 0.00682 ± 0.00036 kPa
vapor or sublimation pressure (343.8 K, Liquid): 0.00673 ± 0.00035 kPa
vapor or sublimation pressure (346.6 K, Liquid): 0.00813 ± 0.00043 kPa
vapor or sublimation pressure (347.2 K, Liquid): 0.00852 ± 0.00044 kPa
vapor or sublimation pressure (347.6 K, Liquid): 0.00864 ± 0.00046 kPa
vapor or sublimation pressure (348.8 K, Liquid): 0.00962 ± 0.0005 kPa
vapor or sublimation pressure (349.8 K, Liquid): 0.0103 ± 0.00053 kPa
vapor or sublimation pressure (350.4 K, Liquid): 0.0106 ± 0.00054 kPa
vapor or sublimation pressure (352.8 K, Liquid): 0.01272 ± 0.00066 kPa
vapor or sublimation pressure (354.8 K, Liquid): 0.01441 ± 0.00075 kPa
vapor or sublimation pressure (357.4 K, Liquid): 0.01733 ± 0.0009 kPa
vapor or sublimation pressure (360.2 K, Liquid): 0.02099 ± 0.0011 kPa
vapor or sublimation pressure (362.6 K, Liquid): 0.025 ± 0.0013 kPa
vapor or sublimation pressure (364.9 K, Liquid): 0.02919 ± 0.0015 kPa
vapor or sublimation pressure (367.4 K, Liquid): 0.03524 ± 0.0018 kPa
vapor or sublimation pressure (370 K, Liquid): 0.04103 ± 0.0021 kPa
vapor or sublimation pressure (371.2 K, Liquid): 0.04325 ± 0.0022 kPa
vapor or sublimation pressure (372.6 K, Liquid): 0.04776 ± 0.0025 kPa
vapor or sublimation pressure (373.9 K, Liquid): 0.05134 ± 0.0027 kPa
vapor or sublimation pressure (375.3 K, Liquid): 0.05672 ± 0.0029 kPa
vapor or sublimation pressure (376.7 K, Liquid): 0.05953 ± 0.0031 kPa
vapor or sublimation pressure (378 K, Liquid): 0.06614 ± 0.0035 kPa
Triple point temperature (Crystal): 324.76 ± 0.05 K

Cc1ccc(-c2ccccc2)cc1 [4-methylbiphenyl]
vapor or sublimation pressure (323.2 K, Liquid): 0.00854 ± 0.00045 kPa
vapor or sublimation pressure (325.4 K, Liquid): 0.01016 ± 0.00053 kPa
vapor or sublimation pressure (327.2 K, Liquid): 0.01156 ± 0.0006 kPa
vapor or sublimation pressure (329.7 K, Liquid): 0.01376 ± 0.00072 kPa
vapor or sublimation pressure (332.2 K, Liquid): 0.01664 ± 0.00087 kPa
vapor or sublimation pressure (334.6 K, Liquid): 0.01979 ± 0.001 kPa
vapor or sublimation pressure (336.2 K, Liquid): 0.02224 ± 0.0012 kPa
vapor or sublimation pressure (338.7 K, Liquid): 0.02634 ± 0.0014 kPa
vapor or sublimation pressure (341.6 K, Liquid): 0.03282 ± 0.0017 kPa
vapor or sublimation pressure (344.1 K, Liquid): 0.03851 ± 0.002 kPa
vapor or sublimation pressure (346.4 K, Liquid): 0.04496 ± 0.0023 kPa
vapor or sublimation pressure (349 K, Liquid): 0.05244 ± 0.0027 kPa
vapor or sublimation pressure (351.2 K, Liquid): 0.06003 ± 0.0031 kPa
vapor or sublimation pressure (353.2 K, Liquid): 0.0695 ± 0.0036 kPa
Triple point temperature (Crystal): 320.33 ± 0.05 K
